Read-outs that look alike come from different tables or passages of the source.
How the values were obtained:
[1] = target: CRBN/DDB1 (Homo sapiens (Human), UniProt Q96SW2); assay type: binding; details: His tagged CRBN+DDB1, Cy5-labeled Thalidomide probe, one hour; read-out: CRBN HTRF IC50
Method: The binding potency was determined using HTRF assay technology (Perkin Elmer). Compounds were serially diluted in DMSO and […] volume was transferred to white 384-well plate.

[2] = target: ER in MCF-7 cells (Homo sapiens (Human), UniProt P03372); experiment: In-cell Western (ICW) ER degradation assay in MCF-7 cells; assay type: cell-based; details: for DC50: MCF-7, ER degradation, read-out: MCF7 DC50
[3] = target: ER in T47D cells (Homo sapiens (Human), UniProt P03372); experiment: In-cell Western (ICW) ER degradation assay in T47D cells; assay type: cell-based; details: for DC50: ER degradation
From the text: In-cell Western (ICW) assays in MCF-7 and T47D cell lines.
Day 3: After 16 hrs of compounds treatment, cells were fixed by 4% PFA and permeabilized with elution buffer (0.1% Triton X-100 in 1% PBS Solution). Subsequently, cells were blocked with Intercept (PBS) Blocking Buffer (Li-COR, Odyssey Blocking Buffer), and were stained with ER (1:500, Cell signaling) primary antibody for overnight at cold room.
Day 4: Remove the buffer, add IRDye 800CW Goat anti-Rabbit IgG Secondary Antibody (1:2000) and CellTag 700 Stain (1:500) in Intercept (PBS) Blocking Buffer. Finally, cell plate is placed in incubator to dry. Image and signal were captured on Odyssey® DLx Imaging System.

[4] = maximal ER degradation, 16 hrs treatment, read-out: T47D Dmax
[5] = MCF7, MCF-7, maximal ER degradation, 16 hrs treatment, read-out: MCF7 Dmax

Chain of CRBN/DDB1 (Q96SW2 whole entry, species assumed): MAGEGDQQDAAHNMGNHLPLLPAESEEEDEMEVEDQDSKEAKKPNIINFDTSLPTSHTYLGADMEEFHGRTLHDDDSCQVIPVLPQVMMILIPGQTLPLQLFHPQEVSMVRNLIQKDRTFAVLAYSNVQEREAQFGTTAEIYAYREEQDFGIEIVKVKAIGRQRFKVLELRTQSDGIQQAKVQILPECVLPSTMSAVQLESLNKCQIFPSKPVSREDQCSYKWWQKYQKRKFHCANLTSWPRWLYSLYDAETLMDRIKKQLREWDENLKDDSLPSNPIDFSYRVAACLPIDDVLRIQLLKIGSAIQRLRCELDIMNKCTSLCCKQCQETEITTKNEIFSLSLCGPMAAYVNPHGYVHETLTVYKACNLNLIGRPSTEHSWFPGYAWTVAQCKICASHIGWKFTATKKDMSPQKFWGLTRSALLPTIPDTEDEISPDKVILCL
Chain of CRBN/DDB1 (Q16531 whole entry partner, species assumed): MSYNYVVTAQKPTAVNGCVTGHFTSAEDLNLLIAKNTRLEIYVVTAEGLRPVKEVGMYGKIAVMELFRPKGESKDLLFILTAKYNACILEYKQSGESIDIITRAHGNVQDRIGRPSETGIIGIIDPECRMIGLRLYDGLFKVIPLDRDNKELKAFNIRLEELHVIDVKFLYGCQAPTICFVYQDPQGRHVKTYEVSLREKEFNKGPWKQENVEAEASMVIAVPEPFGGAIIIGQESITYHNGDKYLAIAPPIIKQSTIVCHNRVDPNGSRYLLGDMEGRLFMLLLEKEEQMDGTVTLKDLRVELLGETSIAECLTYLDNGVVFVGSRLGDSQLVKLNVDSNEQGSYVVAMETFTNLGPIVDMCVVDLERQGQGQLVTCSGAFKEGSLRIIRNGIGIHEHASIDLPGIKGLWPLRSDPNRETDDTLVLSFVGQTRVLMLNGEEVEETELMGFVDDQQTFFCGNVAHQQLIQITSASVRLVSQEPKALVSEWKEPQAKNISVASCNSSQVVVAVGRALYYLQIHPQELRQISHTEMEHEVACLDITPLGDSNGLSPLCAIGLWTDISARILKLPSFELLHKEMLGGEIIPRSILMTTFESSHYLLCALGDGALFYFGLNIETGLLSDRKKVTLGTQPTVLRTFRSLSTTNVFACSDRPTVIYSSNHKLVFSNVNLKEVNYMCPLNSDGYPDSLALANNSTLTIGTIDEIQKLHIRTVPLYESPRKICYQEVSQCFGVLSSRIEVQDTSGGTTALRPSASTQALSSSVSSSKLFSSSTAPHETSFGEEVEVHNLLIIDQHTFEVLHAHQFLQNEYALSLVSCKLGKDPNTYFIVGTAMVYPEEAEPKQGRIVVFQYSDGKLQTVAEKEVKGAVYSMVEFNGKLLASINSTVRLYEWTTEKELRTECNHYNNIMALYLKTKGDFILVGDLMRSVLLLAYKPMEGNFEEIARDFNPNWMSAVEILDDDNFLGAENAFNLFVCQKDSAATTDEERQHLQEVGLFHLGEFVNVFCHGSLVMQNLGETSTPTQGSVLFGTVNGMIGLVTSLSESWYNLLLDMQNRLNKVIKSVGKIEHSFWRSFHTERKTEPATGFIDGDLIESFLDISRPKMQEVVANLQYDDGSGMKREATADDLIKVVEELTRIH
Chain of ER in T47D cells (P03372 whole entry): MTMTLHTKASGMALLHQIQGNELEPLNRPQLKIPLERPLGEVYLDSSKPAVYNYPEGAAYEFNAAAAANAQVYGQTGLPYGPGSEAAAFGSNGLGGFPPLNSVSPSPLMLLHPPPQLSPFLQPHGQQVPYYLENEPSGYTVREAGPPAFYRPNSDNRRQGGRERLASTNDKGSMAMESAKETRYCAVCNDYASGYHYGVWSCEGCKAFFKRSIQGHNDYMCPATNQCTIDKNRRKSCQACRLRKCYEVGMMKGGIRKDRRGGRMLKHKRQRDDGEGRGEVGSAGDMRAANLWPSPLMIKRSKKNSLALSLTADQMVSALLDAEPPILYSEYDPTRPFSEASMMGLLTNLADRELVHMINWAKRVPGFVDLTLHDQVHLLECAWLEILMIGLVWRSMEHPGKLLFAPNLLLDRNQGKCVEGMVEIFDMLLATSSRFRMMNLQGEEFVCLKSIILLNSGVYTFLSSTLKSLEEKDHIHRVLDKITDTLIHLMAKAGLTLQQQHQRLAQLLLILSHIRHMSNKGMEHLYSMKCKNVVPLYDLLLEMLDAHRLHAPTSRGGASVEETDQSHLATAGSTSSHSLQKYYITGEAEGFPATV
Chain of ER in MCF-7 cells (P03372 whole entry): as above

Row | SMILES | IC50 [1] [nM] | Dmax ([2]; MCF7, read-out: MCF7 Dmax, MCF-7, maximal ER degradation, 16 hrs treatment) [%] | DC50 ([2]; 16 hrs treatment) [nM] | DC50 ([3]; 16 hrs treatment) [nM] | Dmax ([3]; read-out: T47D Dmax, T47D, maximal ER degradation, 16 hrs treatment) [%] | Dmax [3, 4] [%] | MCF7 Dmax ([2]; MCF-7, maximal ER degradation, 16 hrs treatment) | T47D Dmax ([3]; maximal ER degradation, 16 hrs treatment) | Dmax [2, 5] [%]
1 | COc1cc(N2CCC(CN3CC[C@@]4(c5ccc(N[C@@H]6CCC(=O)NC6=O)cc5)C(C3)C4(F)F)CC2)ccc1[C@@H]1c2ccc(O)cc2CC[C@@H]1c1ccccc1 (mixture of isomers) [Compound A88, (3R)-3-((4-((1R)-7,7-difluoro-3-((1-(4-((1SR,2SR)-6-hydroxy-2-phenyl-1,2,3,4-tetra-hydronaphthalen-1-yl)-3-meth-oxyphenyl)piperidin-4-yl)meth-yl)-3-azabicyclo[4.1.0]heptan-6-yl)phenyl)amino)piperidine-2,6-dione] | > 5000 | 50 to 75 | 1 to 10 | < 1 | 25 to 50 | – | – | – | –
2 | COc1nc(C(=O)NC2CCC(=O)NC2=O)ccc1N1CCN(CC2CCN(c3ccc([C@@H]4c5ccc(O)cc5CC[C@@H]4c4ccccc4)cc3)CC2)CC1 (single isomer, unassigned) [Compound A1] | 500 to 5000 | – | – | 1 to 10 | – | 25 to 50 | – | – | –
3 | O=C1CC[C@H](N2Cc3c(ccc4c3OC[C@H]3CN(CC5COC6(C5)CN(c5ccc([C@@H]7c8ccc(O)cc8CC[C@@H]7c7ccccc7)cc5)C6)CCN43)C2=O)C(=O)N1 (single isomer, unassigned) [Compound A7] | 500 to 5000 | – | < 1 | < 1 | – | – | B (“B”: >50 and <75%) | B (“B”: >50 and <75%) | –
4 | COc1cc(N2CCC3(CC2)CC(CN2CCN4c5ccc6c(c5OC[C@H]4C2)CN([C@H]2CCC(=O)NC2=O)C6=O)C3)ccc1[C@@H]1c2ccc(O)cc2CC[C@@H]1c1ccccc1 (single isomer, unassigned) [Compound A10] | < 50 | – | < 1 | < 1 | – | > 75 | – | – | > 75
5 | O=C1CC[C@H](NC(=O)c2ccc3c(n2)OC[C@H]2CN(C[C@H]4COC5(CCN(c6ccc([C@@H]7c8ccc(O)cc8CC[C@@H]7c7ccccc7)cc6)CC5)C4)CCN32)C(=O)N1 (single isomer, unassigned) [Compound A13] | 500 to 5000 | – | 1 to 10 | 1 to 10 | – | 50 to 75 | – | – | 50 to 75
6 | O=C1CC[C@H](NC(=O)c2ccc3c(n2)OC[C@H]2CN(C[C@@H]4COC5(CCN(c6ccc([C@@H]7c8ccc(O)cc8CC[C@@H]7c7ccccc7)cc6)CC5)C4)CCN32)C(=O)N1 (single isomer, unassigned) [Compound A14] | 500 to 5000 | – | < 1 | < 1 | – | 50 to 75 | – | – | 50 to 75
7 | O=C1CC[C@H](NC(=O)c2ccc3c(n2)OC[C@H]2CN(C[C@H]4COC5(CCN(c6ccc([C@H]7c8ccc(O)cc8CC[C@H]7c7ccccc7)cc6)CC5)C4)CCN32)C(=O)N1 (single isomer, unassigned) [Compound A15] | 500 to 5000 | – | 10 to 100 | 10 to 100 | – | 25 to 50 | – | – | 25 to 50
8 | O=C1CC[C@H](NC(=O)c2ccc3c(n2)OC[C@H]2CN(C[C@@H]4COC5(CCN(c6ccc([C@H]7c8ccc(O)cc8CC[C@H]7c7ccccc7)cc6)CC5)C4)CCN32)C(=O)N1 (single isomer, unassigned) [Compound A16] | 500 to 5000 | – | 1 to 10 | < 1 | – | 50 to 75 | – | – | 50 to 75
9 | O=C1CC[C@H](N2Cc3cc4c(cc3C2=O)OC[C@H]2CN(C[C@H]3COC5(CCN(c6ccc([C@@H]7c8ccc(O)cc8CC[C@@H]7c7ccccc7)cc6)CC5)C3)CCN42)C(=O)N1 (single isomer, unassigned) [Compound A17] | 500 to 5000 | – | 1 to 10 | 1 to 10 | – | 25 to 50 | – | – | 25 to 50

From patent US20260028354A1, “TETRAHYDRONAPHTHALENE DERIVATIVES AS ESTROGEN RECEPTOR DEGRADERS” (REGENT OF THE UNIVERSITY OF MICHIGAN, priority 2022, published 2026)
